Experiments:
[1] = Two-week Functional Observational Battery (FOB); format: in vivo, rats
Method: The results shown in Table 2 indicate that D-P is the safe compound. During the two weeks, we checked the animals' fur, response to handling, etc. […] We also made sure to observe the animals continuously for 4 hours after each treatment. We mainly focused on any negative changes in the animal's mental behavior, autonomous activity, hair, glandular secretion, feces, death, etc. We found no notable changes with these evaluations.

TG-mice = assay: Open field test of locomotor activity; format: in vivo; details: 3 months
Method: 5) Locomotor assay: To measure the locomotor activity, the numbers of total entries were measured for each animal. Statistical differences were determined using ANOVA. These experiments will determine the effects of D-P on anxiety levels.
DHM-Piperidine Complex (D-P) can replicate DHM effects to improve behavioral impairment in TG-mice. We examined the effect of D-P on AD symptom-like behavior in aged TG2576 mice compared with age-matched wt mice. Mice were divided into three groups: (1) C57BL/6 wt male mice (2% sucrose, oral administration), (2) TG-mice (2% sucrose, oral administration), and (3) TG-mice with D-P (2 mg/kg in 2% sucrose), respectively. After 3 months of treatment, mice were examined with behavioral assays.
Locomotor activity was assayed with open field test. Running distance is one of the parameters quantifying locomotor activity (FIG. 4A). Wt control mice ran 882±55 cm during 10 min. TG-mice ran a much shorter distance (255±12 cm), while the running distance of TG-mice treated with D-P increased to 611±99 cm. […] D-P treatment in TG-mice increased rearing (19.3±2.0 times), times to explore the center (1.3±2.0 times), and duration to stay at the center (0.13±0.03 min). […] Daily oral D-P treatment for TG-mice improves locomotor activity and increased exploring activity, an instinct of animals. Anxiety was assayed with the EPM (FIG. 4D). The wt control spent 48.5±7.5% of total time in open arms and 33.5±3.2% in closed arms.

[2] = female rats, 1 mg/kg oral daily, day0
[3] = female rats, 1 mg/kg oral daily, day3
[4] = female rats, 1 mg/kg oral daily, day5
[5] = female rats, 1 mg/kg oral daily, day8
[6] = female rats, 1 mg/kg oral daily, day10
[7] = female rats, 1 mg/kg oral daily, day12
[8] = female rats, 1 mg/kg oral daily, day14
[9] = female rats, 10 mg/kg oral daily, day0
[10] = female rats, 10 mg/kg oral daily, day3
[11] = female rats, 10 mg/kg oral daily, day5
[12] = female rats, 10 mg/kg oral daily, day8
[13] = female rats, 10 mg/kg oral daily, day10
[14] = female rats, 10 mg/kg oral daily, day12
[15] = female rats, 10 mg/kg oral daily, day14
[16] = female rats, 100 mg/kg oral daily, day0
[17] = female rats, 100 mg/kg oral daily, day3
[18] = female rats, 100 mg/kg oral daily, day5
[19] = female rats, 100 mg/kg oral daily, day8
[20] = female rats, 100 mg/kg oral daily, day10
[21] = female rats, 100 mg/kg oral daily, day12
[22] = female rats, 100 mg/kg oral daily, day14
[23] = male rats, 1 mg/kg oral daily, day0
[24] = male rats, 1 mg/kg oral daily, day3
[25] = male rats, 1 mg/kg oral daily, day5
[26] = male rats, 1 mg/kg oral daily, day8
[27] = male rats, 1 mg/kg oral daily, day10
[28] = male rats, 1 mg/kg oral daily, day12
[29] = male rats, 1 mg/kg oral daily, day14
[30] = male rats, 10 mg/kg oral daily, day0
[31] = male rats, 10 mg/kg oral daily, day3
[32] = male rats, 10 mg/kg oral daily, day5
[33] = male rats, 10 mg/kg oral daily, day8
[34] = male rats, 10 mg/kg oral daily, day10
[35] = male rats, 10 mg/kg oral daily, day12
[36] = male rats, 10 mg/kg oral daily, day14
[37] = male rats, 100 mg/kg oral daily, day0
[38] = male rats, 100 mg/kg oral daily, day3
[39] = male rats, 100 mg/kg oral daily, day5
[40] = male rats, 100 mg/kg oral daily, day8
[41] = male rats, 100 mg/kg oral daily, day10
[42] = male rats, 100 mg/kg oral daily, day12
[43] = male rats, 100 mg/kg oral daily, day14
[44] = rats, oral daily 1, 10 and 100 mg/kg, two weeks

piperidin-1-ium (2R,3R)-2-(3,4-dihydroxy-5-oxidophenyl)-3,5-dihydroxy-4-oxochroman-7-olate [D-P]
Breath (B) [1, 2]: 85 ± 0.5 per minute
Pulse (P) [1, 2]: 366 ± 1.0 beats/minute
Temperature (T) [1, 2]: 36.5 ± 0.4 °C
Breath (B) [1, 3]: 85 ± 0.5 per minute
Pulse (P) [1, 3]: 366 ± 0.4 beats/minute
Temperature (T) [1, 3]: 36.5 ± 0.3 °C
Breath (B) [1, 4]: 85 ± 0.4 per minute
Pulse (P) [1, 4]: 366 ± 1.3 beats/minute
Temperature (T) [1, 4]: 36.5 ± 1.1 °C
Breath (B) [1, 5]: 85 ± 0.5 per minute
Pulse (P) [1, 5]: 366 ± 4.1 beats/minute
Temperature (T) [1, 5]: 36.5 ± 1.2 °C
Breath (B) [1, 6]: 85 ± 0.5 per minute
Pulse (P) [1, 6]: 366 ± 1.0 beats/minute
Temperature (T) [1, 6]: 36.5 ± 0.4 °C
Breath (B) [1, 7]: 85 ± 0.5 per minute
Pulse (P) [1, 7]: 366 ± 7.4 beats/minute
Temperature (T) [1, 7]: 36.5 ± 0.3 °C
Breath (B) [1, 8]: 85 ± 0.4 per minute
Pulse (P) [1, 8]: 366 ± 6.3 beats/minute
Temperature (T) [1, 8]: 36.5 ± 1.1 °C
Breath (B) [1, 9]: 86 ± 0.6 per minute
Pulse (P) [1, 9]: 367 ± 0.5 beats/minute
Temperature (T) [1, 9]: 36.3 ± 0.6 °C
Breath (B) [1, 10]: 86 ± 0.5 per minute
Pulse (P) [1, 10]: 371 ± 2.2 beats/minute
Temperature (T) [1, 10]: 36.3 ± 0.7 °C
Breath (B) [1, 11]: 86 ± 0.5 per minute
Pulse (P) [1, 11]: 369 ± 6.8 beats/minute
Temperature (T) [1, 11]: 36.3 ± 1.0 °C
Breath (B) [1, 12]: 86 ± 0.5 per minute
Pulse (P) [1, 12]: 368 ± 6.1 beats/minute
Temperature (T) [1, 12]: 36.3 ± 1.2 °C
Breath (B) [1, 13]: 86 ± 0.6 per minute
Pulse (P) [1, 13]: 366 ± 6.5 beats/minute
Temperature (T) [1, 13]: 36.3 ± 0.6 °C
Breath (B) [1, 14]: 86 ± 0.5 per minute
Pulse (P) [1, 14]: 367 ± 9.2 beats/minute
Temperature (T) [1, 14]: 36.3 ± 0.7 °C
Breath (B) [1, 15]: 86 ± 0.5 per minute
Pulse (P) [1, 15]: 372 ± 6.8 beats/minute
Temperature (T) [1, 15]: 36.3 ± 1.0 °C
Breath (B) [1, 16]: 85 ± 0.6 per minute
Pulse (P) [1, 16]: 366 ± 9.5 beats/minute
Temperature (T) [1, 16]: 36.2 ± 0.7 °C
Breath (B) [1, 17]: 85 ± 0.4 per minute
Pulse (P) [1, 17]: 364 ± 0.5 beats/minute
Temperature (T) [1, 17]: 36.2 ± 0.7 °C
Breath (B) [1, 18]: 85 ± 0.8 per minute
Pulse (P) [1, 18]: 371 ± 1.5 beats/minute
Temperature (T) [1, 18]: 36.2 ± 0.7 °C
Breath (B) [1, 19]: 85 ± 0.6 per minute
Pulse (P) [1, 19]: 367 ± 1.5 beats/minute
Temperature (T) [1, 19]: 36.2 ± 0.9 °C
Breath (B) [1, 20]: 85 ± 0.6 per minute
Pulse (P) [1, 20]: 369 ± 9.5 beats/minute
Temperature (T) [1, 20]: 36.2 ± 0.7 °C
Breath (B) [1, 21]: 85 ± 0.4 per minute
Pulse (P) [1, 21]: 373 ± 6.5 beats/minute
Temperature (T) [1, 21]: 36.2 ± 0.7 °C
Breath (B) [1, 22]: 85 ± 0.8 per minute
Pulse (P) [1, 22]: 371 ± 4.5 beats/minute
Temperature (T) [1, 22]: 36.2 ± 0.7 °C
Breath (B) [1, 23]: 84 ± 0.3 per minute
Pulse (P) [1, 23]: 367 ± 2.1 beats/minute
Temperature (T) [1, 23]: 36.1 ± 0.3 °C
Breath (B) [1, 24]: 85 ± 0.4 per minute
Pulse (P) [1, 24]: 366 ± 2.5 beats/minute
Temperature (T) [1, 24]: 36.4 ± 0.7 °C
Breath (B) [1, 25]: 85 ± 0.5 per minute
Pulse (P) [1, 25]: 366 ± 1.5 beats/minute
Temperature (T) [1, 25]: 36.5 ± 0.5 °C
Breath (B) [1, 26]: 85 ± 0.5 per minute
Pulse (P) [1, 26]: 366 ± 1.3 beats/minute
Temperature (T) [1, 26]: 36.4 ± 1.0 °C
Breath (B) [1, 27]: 85 ± 0.3 per minute
Pulse (P) [1, 27]: 366 ± 0.2 beats/minute
Temperature (T) [1, 27]: 36.5 ± 0.3 °C
Breath (B) [1, 28]: 85 ± 0.5 per minute
Pulse (P) [1, 28]: 366 ± 1.5 beats/minute
Temperature (T) [1, 28]: 36.5 ± 0.5 °C
Breath (B) [1, 29]: 85 ± 0.5 per minute
Pulse (P) [1, 29]: 366 ± 1.5 beats/minute
Temperature (T) [1, 29]: 36.5 ± 0.5 °C
Breath (B) [1, 30]: 86 ± 0.2 per minute
Pulse (P) [1, 30]: 366 ± 5.2 beats/minute
Temperature (T) [1, 30]: 36.5 ± 0.5 °C
Breath (B) [1, 31]: 86 ± 0.6 per minute
Pulse (P) [1, 31]: 370 ± 0.5 beats/minute
Temperature (T) [1, 31]: 36.4 ± 0.6 °C
Breath (B) [1, 32]: 86 ± 0.5 per minute
Pulse (P) [1, 32]: 374 ± 0.5 beats/minute
Temperature (T) [1, 32]: 36.5 ± 0.5 °C
Breath (B) [1, 33]: 86 ± 0.5 per minute
Pulse (P) [1, 33]: 370 ± 1.9 beats/minute
Temperature (T) [1, 33]: 36.4 ± 1.1 °C
Breath (B) [1, 34]: 86 ± 0.2 per minute
Pulse (P) [1, 34]: 372 ± 6.2 beats/minute
Temperature (T) [1, 34]: 36.5 ± 0.5 °C
Breath (B) [1, 35]: 86 ± 0.5 per minute
Pulse (P) [1, 35]: 373 ± 4.5 beats/minute
Temperature (T) [1, 35]: 36.5 ± 0.5 °C
Breath (B) [1, 36]: 86 ± 0.5 per minute
Pulse (P) [1, 36]: 371 ± 7.5 beats/minute
Temperature (T) [1, 36]: 36.5 ± 0.5 °C
Breath (B) [1, 37]: 86 ± 0.5 per minute
Pulse (P) [1, 37]: 371 ± 0.6 beats/minute
Temperature (T) [1, 37]: 36.4 ± 1.0 °C
Breath (B) [1, 38]: 86 ± 0.3 per minute
Pulse (P) [1, 38]: 365 ± 8.1 beats/minute
Temperature (T) [1, 38]: 36.3 ± 0.7 °C
Breath (B) [1, 39]: 86 ± 0.3 per minute
Pulse (P) [1, 39]: 367 ± 0.9 beats/minute
Temperature (T) [1, 39]: 36.4 ± 0.8 °C
Breath (B) [1, 40]: 86 ± 0.5 per minute
Pulse (P) [1, 40]: 365 ± 9.5 beats/minute
Temperature (T) [1, 40]: 36.3 ± 1.5 °C
Breath (B) [1, 41]: 86 ± 0.5 per minute
Pulse (P) [1, 41]: 368 ± 8.7 beats/minute
Temperature (T) [1, 41]: 36.4 ± 1.0 °C
Breath (B) [1, 42]: 86 ± 0.3 per minute
Pulse (P) [1, 42]: 371 ± 5.9 beats/minute
Temperature (T) [1, 42]: 36.4 ± 0.8 °C
Breath (B) [1, 43]: 86 ± 0.3 per minute
Pulse (P) [1, 43]: 369 ± 5.9 beats/minute
Temperature (T) [1, 43]: 36.4 ± 0.8 °C
FOB overall observation [1, 44]: did not find any notable negative changes
deaths or injuries [1, 44]: No deaths or injuries
running distance (TG-mice; 2 mg/kg in 2% sucrose, 10 min, untreated TG 255±12): 611±99 cm
duration to stay at the center (TG-mice; 2 mg/kg, untreated TG 0.02±0.01): 0.13 ± 0.03 min
times to explore the center (TG-mice; 2 mg/kg, untreated TG 0.2±0.1): 1.3±2.0 times
rearing (TG-mice; 2 mg/kg, untreated TG 12.5±2.1): 19.3±2.0 times
